The values below come from ChEMBL document CHEMBL5500372, “Novel natural osthole-inspired amphiphiles as membrane targeting antibacterials against methicillin-resistant Staphylococcus aureus (MRSA)” (Eur J Med Chem, 2024).

Activity calls are given as the source filed them. No cut-off for these calls is given here.

Series [1] has as its system Staphylococcus aureus. The experiment in a line: Antibacterial activity against Staphylococcus aureus ATCC 29213 at 128 ug/ml measured after 20 passages by CLSI micro broth dilution method. The class given is functional, organism-based. As to conditions: dose 128.0 µg/ml. Background: In broth dilution the organism is exposed to a series of concentrations in liquid medium.

Series [2] is described as follows: Toxicity in female KM mouse skin abscess model infected with methicillin-resistant Staphylococcus aureus clinical isolate 16 assessed as effect on spleen at 5 mg/kg, sc measured after 24 hrs by H and E staining based analysis. It is filed as organism-based. As to conditions: in vivo.
Series [3] can be described thus: Toxicity in female KM mouse skin abscess model infected with methicillin-resistant Staphylococcus aureus clinical isolate 16 assessed as histological abnormalities in heart at 5 mg/kg, sc measured after 24 hrs by H and E staining based analysis. As to conditions: in vivo. It is filed as organism-based.
Series [4] in a line: Toxicity in female KM mouse skin abscess model infected with methicillin-resistant Staphylococcus aureus clinical isolate 16 assessed as effect on liver at 5 mg/kg, sc measured after 24 hrs by H and E staining based analysis. It is filed as organism-based. The settings on record: in vivo.
For series [5], the system named is Staphylococcus aureus. The series is described as follows: Bactericidal activity against methicillin-resistant Staphylococcus aureus clinical isolate 16 assessed as eradication of bacteria at 8 times MIC measured after 8 hrs by time-kill assay. The class given is functional, organism-based.
In series [6] the test system is Staphylococcus aureus. The series is described as follows: Antibacterial activity against methicillin-resistant Staphylococcus aureus clinical isolate 16 infected in female KM mouse skin abscess model assessed as reduction in inflammatory cells at 5 mg/kg, sc measured after 24 hrs by H and E staining based analysis. It is filed as functional, organism-based.
The subject of series [7] is Staphylococcus aureus. The series is described as follows: Antibacterial activity against methicillin-resistant Staphylococcus aureus clinical isolate 16 infected in female KM mouse skin abscess model assessed as reduction in number of MRSA cells at 5 mg/kg, sc measured after 24 hrs. The class given is functional, organism-based.
The subject of series [8] is Staphylococcus aureus. The series is described as follows: Antibacterial activity against methicillin-resistant Staphylococcus aureus clinical isolate 16 infected in female KM mouse skin abscess model assessed as reduction in TNF-alpha level at 5 mg/kg, sc measured after 24 hrs by ELISA method. It is filed as functional, organism-based. In general terms: An ELISA detects its analyte on a solid surface through an enzyme-linked reagent.

Series [9] can be described thus: Toxicity in female KM mouse skin abscess model infected with methicillin-resistant Staphylococcus aureus clinical isolate 16 assessed as histological abnormalities in liver at 5 mg/kg, sc measured after 24 hrs by H and E staining based analysis. The class given is organism-based. The settings on record: in vivo.
The test system of series [10] is Staphylococcus aureus. The experiment in a line: Antibacterial activity against methicillin-resistant Staphylococcus aureus clinical isolate 16 infected in female KM mouse skin abscess model assessed as effect on abscess in intradermal tissue at 5 mg/kg, sc measured after 24 hrs. It is filed as functional, organism-based.
Series [11] deals with Staphylococcus aureus. The experiment in a line: Antibacterial activity against methicillin-resistant Staphylococcus aureus clinical isolate 16 infected in female KM mouse skin abscess model assessed as effect on abscess in back skin at 5 mg/kg, sc measured after 24 hrs. It is filed as functional, organism-based.
Series [12] is described as follows: Toxicity in female KM mouse skin abscess model infected with methicillin-resistant Staphylococcus aureus clinical isolate 16 assessed as effect on lung at 5 mg/kg, sc measured after 24 hrs by H and E staining based analysis. It is filed as organism-based. As to conditions: in vivo.
Series [13] is described as follows: Toxicity in female KM mouse skin abscess model infected with methicillin-resistant Staphylococcus aureus clinical isolate 16 assessed as histological abnormalities in spleen at 5 mg/kg, sc measured after 24 hrs by H and E staining based analysis. The class given is organism-based. As to conditions: in vivo.
Series [14] concerns Staphylococcus aureus. The series is described as follows: Antibacterial activity against methicillin-resistant Staphylococcus aureus clinical isolate 16 infected in female KM mouse skin abscess model assessed as reduction in IL-6 level at 5 mg/kg, sc measured after 24 hrs by ELISA method. It is filed as functional, organism-based.
The nature of series [15]: Toxicity in female KM mouse skin abscess model infected with methicillin-resistant Staphylococcus aureus clinical isolate 16 assessed as effect on kidney at 5 mg/kg, sc measured after 24 hrs by H and E staining based analysis. The class given is organism-based. The settings on record: in vivo.
The nature of series [16]: Toxicity in female KM mouse skin abscess model infected with methicillin-resistant Staphylococcus aureus clinical isolate 16 assessed as histological abnormalities in kidney at 5 mg/kg, sc measured after 24 hrs by H and E staining based analysis. It is filed as organism-based. The settings on record: in vivo.
Series [17] in a line: Toxicity in female KM mouse skin abscess model infected with methicillin-resistant Staphylococcus aureus clinical isolate 16 assessed as histological abnormalities in lung at 5 mg/kg, sc measured after 24 hrs by H and E staining based analysis. The class given is organism-based. The settings on record: in vivo.
Series [18] in a line: Toxicity in female KM mouse skin abscess model infected with methicillin-resistant Staphylococcus aureus clinical isolate 16 assessed as effect on heart at 5 mg/kg, sc measured after 24 hrs by H and E staining based analysis. The class given is organism-based. The settings on record: in vivo.
Series [19] relates to Staphylococcus aureus. The series is described as follows: Antibacterial activity against methicillin-resistant Staphylococcus aureus clinical isolate 16 infected in female KM mouse skin abscess model assessed as reduction in bacterial load at 5 mg/kg, sc measured after 24 hrs relative to control. It is filed as functional. Also on record: scale not given: the % may be the effect or the level left.

Series [20] concerns Staphylococcus aureus. The series is described as follows: Antibacterial activity against methicillin-resistant Staphylococcus aureus clinical isolate 16 infected in female KM mouse skin abscess model assessed as log reduction in bacterial load at 5 mg/kg, sc measured after 24 hrs (reference value: 8.508 log10CFU/g). The class given is functional.
The test system of series [21] is Staphylococcus aureus. The series is described as follows: Bactericidal activity against Staphylococcus aureus ATCC 29213 assessed as eradication of bacteria at 8 times MIC measured after 8 hrs by time-kill assay. It is filed as functional, organism-based.
Series [22] deals with Escherichia coli. The experiment in a line: Antibacterial activity against Escherichia coli ATCC 25922 measured after 18 hrs by CLSI based broth microdilution method. It is filed as functional.
Series [23] has as its system Staphylococcus aureus. The experiment in a line: Antibacterial activity against methicillin-resistant Staphylococcus aureus clinical isolate 17 measured after 18 hrs by CLSI based broth microdilution method. It is filed as functional.
Series [24] has as its system Staphylococcus aureus. The experiment in a line: Antibacterial activity against methicillin-resistant Staphylococcus aureus clinical isolate 12 measured after 18 hrs by CLSI based broth microdilution method. The class given is functional.
The test system of series [25] is Staphylococcus aureus. The experiment in a line: Antibacterial activity against Staphylococcus aureus ATCC 29213 measured after 18 hrs by CLSI based broth microdilution method. The class given is functional.
The subject of series [26] is Staphylococcus aureus. The series is described as follows: Antibacterial activity against methicillin-resistant Staphylococcus aureus clinical isolate 11 measured after 18 hrs by CLSI based broth microdilution method. It is filed as functional.
Series [27] is described as follows: Selectivity index, ratio of HC50 for hemolytic activity in sheep erythrocyte assessed as hemolysis to MIC for antibacterial activity against Staphylococcus aureus ATCC 29213. As to conditions: sheep erythrocytes, read-out: Selectivity Index. It is filed as toxicity.
Series [28] deals with Staphylococcus aureus. The experiment in a line: Antibacterial activity against methicillin-resistant Staphylococcus aureus clinical isolate 22 measured after 18 hrs by CLSI based broth microdilution method. It is filed as functional.
Series [29] has as its system Staphylococcus aureus. The series is described as follows: Antibacterial activity against methicillin-resistant Staphylococcus aureus clinical isolate 13 measured after 18 hrs by CLSI based broth microdilution method. It is filed as functional.
The subject of series [30] is Staphylococcus aureus. The series is described as follows: Antibacterial activity against methicillin-resistant Staphylococcus aureus clinical isolate 16 measured after 18 hrs by CLSI based broth microdilution method. The class given is functional.
The subject of series [31] is Staphylococcus aureus. The experiment in a line: Antibacterial activity against methicillin-resistant Staphylococcus aureus clinical isolate 23 measured after 18 hrs by CLSI based broth microdilution method. It is filed as functional.
Series [32] relates to Staphylococcus aureus. The series is described as follows: Antibacterial activity against methicillin-resistant Staphylococcus aureus clinical isolate 21 measured after 18 hrs by CLSI based broth microdilution method. The class given is functional.
The test system of series [33] is Staphylococcus aureus. The experiment in a line: Antibacterial activity against methicillin-resistant Staphylococcus aureus clinical isolate 20 measured after 18 hrs by CLSI based broth microdilution method. The class given is functional.
Series [34] is described as follows: Hemolytic activity in sheep erythrocyte assessed as hemolysis incubated for 1 hr by absorbance based analysis. It is filed as toxicity, cell-based, Ovis aries. The settings on record: sheep erythrocytes.
The test system of series [35] is Staphylococcus aureus. The series is described as follows: Antibacterial activity against methicillin-resistant Staphylococcus aureus clinical isolate 14 measured after 18 hrs by CLSI based broth microdilution method. It is filed as functional.
The subject of series [36] is Cell membrane. The experiment in a line: Induction of cytoplasmic membrane permeabilization in methicillin-resistant Staphylococcus aureus clinical isolate 16 assessed as increase in fluorescence intensity measured after 35 mins by SYTOX green dye based fluorescence analysis.
For series [37], the system named is Cell membrane. The experiment in a line: Induction of cytoplasmic membrane depolarization in methicillin-resistant Staphylococcus aureus clinical isolate 16 assessed as increase in fluorescence intensity measured after 35 mins by DiSC3-5 dye based fluorescence method. It is filed as cell membranes.

A word on the MIC: it is the lowest concentration that inhibits growth of the organism. One may read the HC50 as the concentration that lyses half of the red blood cells.

With `CCn1cc(C(=O)O)c(=O)c2cc(F)c(N3CCNCC3)cc21`, in [1], the outcome was Active.

`CN[C@H](CC(C)C)C(=O)N[C@H]1C(=O)N[C@@H](CC(N)=O)C(=O)N[C@H]2C(=O)N[C@H]3C(=O)N[C@H](C(=O)N[C@H](C(=O)O)c4cc(O)cc(O)c4-c4cc3ccc4O)[C@H](O)c3ccc(c(Cl)c3)Oc3cc2cc(c3O[C@@H]2O[C@H](CO)[C@@H](O)[C@H](O)[C@H]2O[C@H]2C[C@](C)(N)[C@H](O)[C@H](C)O2)Oc2ccc(cc2Cl)[C@H]1O` [VANCOMYCIN]: the Activity result in series [2], in series [3], in [4], in series [9], in [12] and in [13] was “Non-Toxic” each time. For the same compound, the Activity result was “Non-Toxic” in [15]; “Non-Toxic” in series [16]; “Non-Toxic” in series [17]; “Non-Toxic” in series [18]; 98.93% in series [19]; 1.922 log10CFU/g in series [20]. Besides, the result in series [5] and in series [21] was inactive. The outcome in series [6], in series [7], in series [8], in series [10], in series [11] and in [14] was Active.

Turning to `CCCNC(=O)C[N+](C)(C)CCCCOc1ccc2ccc(=O)oc2c1CC=C(C)C.[Br-]`, the MIC in series [22] is 128 mg/L; in series [23], 64 mg/L; in [24], 64 mg/L; in [25] it was 64 mg/L; in series [26] it was 64 mg/L; in series [28], 64 mg/L. Also, the MIC in series [29] worked out at 64 mg/L; in series [30], 32 mg/L; in series [31] it was 64 mg/L; in series [32], 64 mg/L; in [33] it was 64 mg/L; in series [35], 32 mg/L. The selectivity ratio in series [27] is over 20. In addition, the 50% haemolytic concentration (HC50) at 1 h in series [34] was over 1280 µg/mL.

In the case of `CCNC(=O)C[N+](C)(C)CCCCOc1ccc2ccc(=O)oc2c1CC=C(C)C.[Br-]`, the MIC in [22], in series [23], in series [24], in [25], in series [26] and in [28] was 128 mg/L each time. Also, the minimal inhibitory concentration (MIC) in series [29] is 128 mg/L; in [30], 128 mg/L; in [31], 128 mg/L; in series [32], 128 mg/L; in [33], 64 mg/L; in series [35], 128 mg/L. The selectivity ratio in [27] was over 10. Moreover, the HC50 at 1 h in series [34] is over 1280 µg/mL.

On to `CC[C@H](C)[C@H](NC(=O)CN)C(=O)NCC(=O)N[C@@H](C)C(=O)N[C@H](C(=O)N[C@@H](CC(C)C)C(=O)N[C@@H](CCCCN)C(=O)N[C@H](C(=O)N[C@@H](CC(C)C)C(=O)N[C@H](C(=O)N[C@H](C(=O)NCC(=O)N[C@@H](CC(C)C)C(=O)N1CCC[C@H]1C(=O)N[C@@H](C)C(=O)N[C@@H](CC(C)C)C(=O)N[C@H](C(=O)N[C@@H](CO)C(=O)N[C@@H](Cc1c[nH]c2ccccc12)C(=O)N[C@H](C(=O)N[C@@H](CCCCN)C(=O)N[C@@H](CCCNC(=N)N)C(=O)N[C@@H](CCCCN)C(=O)N[C@@H](CCCNC(=N)N)C(=O)N[C@@H](CCC(N)=O)C(=O)N[C@@H](CCC(N)=O)C(N)=O)[C@@H](C)CC)[C@@H](C)CC)[C@@H](C)O)[C@@H](C)O)C(C)C)C(C)C`, for which the result in [36] and in series [37] was Active.
